Laboratory results: ChEMBL document CHEMBL2203009, “Synthesis of isoindole and benzoisoindole derivatives of teicoplanin pseudoaglycon with remarkable antibacterial and antiviral activities” (Bioorg Med Chem Lett, 2012)
Values after ≈ are worked out from the molar mass of the structure shown.

Tests used:
Human alphaherpesvirus 2 = assay: Antiviral activity against HSV2 G infected in HEL cells assessed as inhibition of virus-induced cytopathic effect; format: functional, organism-based; details: Human alphaherpesvirus 2, strain G
Bacillus subtilis = assay: Antimicrobial activity against Bacillus subtilis ATCC 6633; format: functional
[1] = Toxicity in MDCK cells assessed as induction of cell morphology changes; format: cell-based, Canis lupus familiaris; details: dog
[2] = test system: Staphylococcus epidermidis; assay: Antimicrobial activity against Staphylococcus epidermidis over-expressing MecA; format: functional
Vaccinia virus = assay: Antiviral activity against Vaccinia virus infected in HEL cells assessed as inhibition of virus-induced cytopathic effect; format: functional, organism-based; details: Orthopoxvirus vaccinia
Human alphaherpesvirus 1 [3] = assay: Antiviral activity against thymidine kinase deficient and acyclovir-resistant HSV1 KOS infected in HEL cells assessed as inhibition of virus-induced cytopathic effect; format: functional, organism-based; details: Human alphaherpesvirus 1, KOS
H3N2 subtype = assay: Antiviral activity against Influenza A virus (A/Hong Kong/7/1987(H3N2)) […] infected in MDCK cells assessed as inhibition of virus-induced cytopathic effect; format: functional, organism-based
Enterococcus faecalis [4] = assay: Antimicrobial activity against Enterococcus faecalis 15376 over-expressing vanA; format: functional
[5] = test system: Vesicular stomatitis virus; assay: Antiviral activity against Vesicular stomatitis virus infected in HEL cells assessed as inhibition of virus-induced cytopathic effect; format: functional, organism-based
Human alphaherpesvirus 1 [6] = assay: Antiviral activity against HSV1 KOS infected in HEL cells assessed as inhibition of virus-induced cytopathic effect; format: functional, organism-based; details: Human alphaherpesvirus 1, KOS
Staphylococcus aureus [7] = assay: Antimicrobial activity against methicillin-sensitive Staphylococcus aureus ATCC 29213; format: functional
Influenza B virus = assay: Antiviral activity against Influenza B virus (B/Hong Kong/05/1972) […] infected in MDCK cells assessed as inhibition of virus-induced cytopathic effect; format: functional, cell-based; details: B/Hong Kong/05/1972, MDCK
[8] = test system: Staphylococcus epidermidis; assay: Antimicrobial activity against Staphylococcus epidermidis ATCC 35984 biofilms; format: functional
Enterococcus faecalis [9] = assay: Antimicrobial activity against Enterococcus faecalis ATCC 51299 over-expressing vanB; format: functional
[10] = Toxicity in HEL cells assessed as induction of cell morphology changes; format: cell-based; details: human
Staphylococcus aureus [11] = assay: Antimicrobial activity against methicillin-resistant Staphylococcus aureus ATCC 33591; format: functional
Enterococcus faecalis [12] = assay: Antimicrobial activity against Enterococcus faecalis ATCC 29212; format: functional
Influenza A virus = assay: Antiviral activity against Influenza A virus (A/Puerto Rico/8/1934(H1N1)) H1N1 infected in MDCK cells assessed as inhibition of virus-induced cytopathic effect; format: functional, organism-based

| SMILES | EC50 (Human alphaherpesvirus 2) | MBC (Bacillus subtilis) | MIC (Bacillus subtilis) | MCC [1] | MBC [2] | MIC [2] | EC50 (Vaccinia virus) | EC50 (Human alphaherpesvirus 1 [3]) | EC50 (H3N2 subtype) | MBC (Enterococcus faecalis [4]) | MIC (Enterococcus faecalis [4]) | EC50 [5] | EC50 (Human alphaherpesvirus 1 [6]) | MBC (Staphylococcus aureus [7]) | MIC (Staphylococcus aureus [7]) | EC50 (Influenza B virus) | MBC [8] | MIC [8] | MBC (Enterococcus faecalis [9]) | EC50 (Influenza A virus) | further results |
| --- | --- | --- | --- | --- | --- | --- | --- | --- | --- | --- | --- | --- | --- | --- | --- | --- | --- | --- | --- | --- | --- |
| CC(=O)N[C@H]1[C@H](O[C@@H]2c3ccc(c(Cl)c3)Oc3cc4cc(c3O)Oc3ccc(cc3Cl)C[C@H]3NC(=O)[C@H](n5cc6ccccc6c5Sc5ncccn5)c5ccc(O)c(c5)Oc5cc(O)cc(c5)[C@H](NC3=O)C(=O)N[C@H]4C(=O)N[C@H]3C(=O)N[C@@H]2C(=O)N[C@H](C(=O)O)c2cc(O)cc(O)c2-c2cc3ccc2O)O[C@H](CO)[C@@H](O)[C@@H]1O | 45 µM | 0.5 µg/mL (≈ 0.31 µM) | 0.0625 µg/mL (≈ 0.0388 µM) | 20 µM | 64 µg/mL (≈ 39.7 µM) | 4 µg/mL (≈ 2.48 µM) | ≥ 58 µM | 50 µM | > 100 µM | 256 µg/mL (≈ 159 µM) | 0.0625 µg/mL (≈ 0.0388 µM) | > 100 µM | 47 µM | 0.5 µg/mL (≈ 0.31 µM) | 0.0313 µg/mL (≈ 0.0194 µM) | > 100 µM | 1 µg/mL (≈ 0.62 µM) | 0.0165 µg/mL (≈ 0.0102 µM) | 256 µg/mL (≈ 159 µM) | > 100 µM | MIC (Enterococcus faecalis [9]): 1 µg/mL (≈ 0.62 µM); MCC [10]: > 100 µM; MBC (Staphylococcus aureus [11]): 8 µg/mL (≈ 4.96 µM); MIC (Staphylococcus aureus [11]): 0.0313 µg/mL (≈ 0.0194 µM); MBC (Enterococcus faecalis [12]): 256 µg/mL (≈ 159 µM); MIC (Enterococcus faecalis [12]): 0.0313 µg/mL (≈ 0.0194 µM) |
| CC(=O)N[C@@H]1[C@@H](OC(C)=O)[C@H](OC(C)=O)[C@@H](COC(C)=O)O[C@H]1Sc1c2ccccc2cn1[C@H]1C(=O)N[C@@H]2Cc3ccc(c(Cl)c3)Oc3cc4cc(c3O)Oc3ccc(cc3Cl)[C@@H](O[C@@H]3O[C@H](CO)[C@@H](O)[C@H](O)[C@H]3NC(C)=O)[C@@H]3NC(=O)[C@H](NC(=O)[C@@H]4NC(=O)[C@@H](NC2=O)c2cc(O)cc(c2)Oc2cc1ccc2O)c1ccc(O)c(c1)-c1c(O)cc(O)cc1[C@@H](C(=O)O)NC3=O | 40 µM | 1 µg/mL (≈ 0.537 µM) | 0.25 µg/mL (≈ 0.134 µM) | 20 µM | 32 µg/mL (≈ 17.2 µM) | 2 µg/mL (≈ 1.07 µM) | 45 µM | 45 µM | > 100 µM | 256 µg/mL (≈ 137 µM) | 0.0625 µg/mL (≈ 0.0335 µM) | > 100 µM | 40 µM | 1 µg/mL (≈ 0.537 µM) | 0.125 µg/mL (≈ 0.0671 µM) | > 100 µM | 2 µg/mL (≈ 1.07 µM) | 0.0075 µg/mL (≈ 0.00402 µM) | 256 µg/mL (≈ 137 µM) | > 100 µM | MIC (Enterococcus faecalis [9]): 2 µg/mL (≈ 1.07 µM); MCC [10]: > 100 µM; MBC (Staphylococcus aureus [11]): 2 µg/mL (≈ 1.07 µM); MIC (Staphylococcus aureus [11]): 0.0625 µg/mL (≈ 0.0335 µM); MBC (Enterococcus faecalis [12]): 256 µg/mL (≈ 137 µM); MIC (Enterococcus faecalis [12]): 2 µg/mL (≈ 1.07 µM) |
| NC12CC3CC(CC(C3)C1)C2 [AMANTADINE] |  |  |  | ≥ 500 µM |  |  |  |  | 0.45 µM |  |  |  |  |  |  | > 500 µM |  |  |  | 212 µM |  |
| CC(=O)N[C@H]1[C@H](O[C@@H]2c3ccc(c(Cl)c3)Oc3cc4cc(c3O)Oc3ccc(cc3Cl)C[C@H]3NC(=O)[C@H](n5cc6ccccc6c5S[C@@H]5O[C@H](COC(C)=O)[C@@H](OC(C)=O)[C@H](OC(C)=O)[C@H]5OC(C)=O)c5ccc(O)c(c5)Oc5cc(O)cc(c5)[C@H](NC3=O)C(=O)N[C@H]4C(=O)N[C@H]3C(=O)N[C@@H]2C(=O)N[C@H](C(=O)O)c2cc(O)cc(O)c2-c2cc3ccc2O)O[C@H](CO)[C@@H](O)[C@@H]1O | 11 µM | 64 µg/mL (≈ 34.3 µM) | 0.25 µg/mL (≈ 0.134 µM) | 20 µM | 256 µg/mL (≈ 137 µM) | 2 µg/mL (≈ 1.07 µM) | 45 µM | 40 µM | > 100 µM | 256 µg/mL (≈ 137 µM) | 4 µg/mL (≈ 2.15 µM) | 48 µM | 40 µM | 16 µg/mL (≈ 8.58 µM) | 0.0625 µg/mL (≈ 0.0335 µM) | > 100 µM | 8 µg/mL (≈ 4.29 µM) | 2 µg/mL (≈ 1.07 µM) | 256 µg/mL (≈ 137 µM) | > 100 µM | MIC (Enterococcus faecalis [9]): 4 µg/mL (≈ 2.15 µM); MCC [10]: ≥ 100 µM; MBC (Staphylococcus aureus [11]): 128 µg/mL (≈ 68.6 µM); MIC (Staphylococcus aureus [11]): 0.0313 µg/mL (≈ 0.0168 µM); MBC (Enterococcus faecalis [12]): 256 µg/mL (≈ 137 µM); MIC (Enterococcus faecalis [12]): 1 µg/mL (≈ 0.536 µM) |
| CC(=O)N[C@H]1[C@H]([C@H](O)[C@H](O)CO)OC(C(=O)O)=C[C@@H]1NC(=N)N [ZANAMIVIR] |  |  |  | > 100 µM |  |  |  |  | 4.8 µM |  |  |  |  |  |  | 23 µM |  |  |  | 1.6 µM |  |
| CC(=O)N[C@H]1[C@H](O[C@@H]2c3ccc(c(Cl)c3)Oc3cc4cc(c3O)Oc3ccc(cc3Cl)C[C@H]3NC(=O)[C@H](n5cc6cc7ccccc7cc6c5Sc5ccccc5)c5ccc(O)c(c5)Oc5cc(O)cc(c5)[C@H](NC3=O)C(=O)N[C@H]4C(=O)N[C@H]3C(=O)N[C@@H]2C(=O)N[C@H](C(=O)O)c2cc(O)cc(O)c2-c2cc3ccc2O)O[C@H](CO)[C@@H](O)[C@@H]1O | > 20 µM | 4 µg/mL (≈ 2.41 µM) | 2 µg/mL (≈ 1.2 µM) | < 0.8 µM | 256 µg/mL (≈ 154 µM) | 0.0313 µg/mL (≈ 0.0189 µM) | > 20 µM | > 20 µM | > 100 µM | 32 µg/mL (≈ 19.3 µM) | 0.125 µg/mL (≈ 0.0753 µM) | > 20 µM | > 20 µM | 1 µg/mL (≈ 0.602 µM) | 0.0313 µg/mL (≈ 0.0189 µM) | > 100 µM | 0.5 µg/mL (≈ 0.301 µM) | 0.0313 µg/mL (≈ 0.0189 µM) | 256 µg/mL (≈ 154 µM) | > 100 µM | MIC (Enterococcus faecalis [9]): 2 µg/mL (≈ 1.2 µM); MCC [10]: 100 µM; MBC (Staphylococcus aureus [11]): 0.5 µg/mL (≈ 0.301 µM); MIC (Staphylococcus aureus [11]): 0.25 µg/mL (≈ 0.151 µM); MBC (Enterococcus faecalis [12]): 256 µg/mL (≈ 154 µM); MIC (Enterococcus faecalis [12]): 1 µg/mL (≈ 0.602 µM) |
| CC(N)C12CC3CC(CC(C3)C1)C2 (stereo not given) [RIMANTADINE] |  |  |  |  |  |  |  |  | 0.051 µM |  |  |  |  |  |  | > 500 µM |  |  |  | 14 µM |  |
